Activity data for 1 compound are collected here from ChEMBL document CHEMBL4251700, “Novel Staphyloxanthin Inhibitors with Improved Potency against Multidrug Resistant Staphylococcus aureus” (ACS Med Chem Lett, 2018).

Assay [1] deals with Staphylococcus aureus. In words: Antibacterial activity against vancomycin-intermediate Staphylococcus aureus Mu50 infected in BALB/c mouse assessed as reduction of bacterial burden in liver at 0.4 mg, ip bid administered at 12 hrs prior to bacterial infection dosed at 12 intervals for 4.5 days. It is filed as functional, organism-based.
The test system of assay [2] is Staphylococcus aureus. Kind of assay: Antibacterial activity against vancomycin-intermediate Staphylococcus aureus Mu50 infected in BALB/c mouse assessed as reduction of bacterial burden in liver at 0.1 mg, ip bid administered at 12 hrs prior to bacterial infection dosed at 12 intervals for 4.5 days. It is filed as functional, organism-based.

SMILES strings stand for the structures. Activity calls are given as the source filed them. No cut-off for these calls is given here.

`CN(C/C=C/C=C/c1ccc(C(F)(F)F)cc1)Cc1ccc2c(c1)OCCO2.Cl`: the outcome in the assay with Staphylococcus aureus [1] and in the assay with Staphylococcus aureus [2] was Active.
